For one assay, the target named is Cathepsin L (Homo sapiens, UniProt P07711). In words: Cathepsin L enzyme assay. The assay is classed as biochemical. The following applies: Ki by Morrison equation; pH 5.5, substrate Z-Phe-Arg-Amc; read-out: Cat L. From the text: Two wells contained DMSO only for controls.
Velocity was converted to μM/sec.

A further assay deals with Calpain. Briefly: Calpain enzyme assay. The assay is classed as biochemical. The following applies: Ki by Morrison equation; pH 7.5, 5 mM CaCl2.

A value given as a limit tells only on which side of the number the result lay.

Cathepsin L, sequence (P07711 114-333, species assumed): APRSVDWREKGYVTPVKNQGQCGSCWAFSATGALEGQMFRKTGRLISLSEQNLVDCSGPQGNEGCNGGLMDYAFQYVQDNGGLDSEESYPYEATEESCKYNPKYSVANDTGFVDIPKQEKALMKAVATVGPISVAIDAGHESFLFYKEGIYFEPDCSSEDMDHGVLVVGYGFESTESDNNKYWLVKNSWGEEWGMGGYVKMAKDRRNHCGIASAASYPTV

As to `CCC(C)C(NC(=O)C(CC1CC1)NC(=O)OCc1ccccc1)C(=O)C(=O)NCC(=O)NC(Cc1ccc2ccccc2c1)C(N)=O` (centres unmarked) [PHELIX299, benzyl (1-((1-((2-((1-amino-3-(naphthalen-2-yl)-1-oxopropan-2-yl)amino)-2-oxoethyl)amino)-4-methyl-1,2-dioxohexan-3-yl)amino)-3-cyclopropyl-1-oxopropan-2-yl)carbamate], the values for the Ki on Cathepsin L and at Calpain were 12.3 nM and 4.83 nM, respectively.

Consider `CCC(C)C(NC(=O)C(CC(C)C)NC(=O)OCc1ccccc1)C(=O)C(=O)NCC(=O)NC(Cc1ccc(F)cc1)C(N)=O` (centres unmarked) [PHELIX349, benzyl (1-((1-((2-((1-amino-3-(4-fluorophenyl)-1-oxopropan-2-yl)amino)-2-oxoethyl)amino)-4-methyl-1,2-dioxohexan-3-yl)amino)-4-methyl-1-oxopentan-2-yl)carbamate], for which the Ki amounted to 2.11 nM on Cathepsin L and 2.27 nM on Calpain.

Regarding `CCC(C)C(NC(=O)C(CC(C)C)NC(=O)OCc1ccccc1)C(=O)C(=O)NC(CC#N)C(=O)NC(Cc1ccc2ccccc2c1)C(N)=O` (centres unmarked) [PHELIX336, benzyl (1-((1-((1-((1-amino-3-(naphthalen-2-yl)-1-oxopropan-2-yl)amino)-3-cyano-1-oxopropan-2-yl)amino)-4-methyl-1,2-dioxohexan-3-yl)amino)-4-methyl-1-oxopentan-2-yl)carbamate], the Ki on Cathepsin L was 4.04 nM; on Calpain it was 33.6 nM.

In the case of `CCC(C)C(NC(=O)C(CC(C)C)NC(=O)OCc1ccccc1)C(=O)C(=O)NC(Cc1cccc(F)c1)C(N)=O` (centres unmarked) [PHELIX359, benzyl (1-((1-((1-amino-3-(3-fluorophenyl)-1-oxopropan-2-yl)amino)-4-methyl-1,2-dioxohexan-3-yl)amino)-4-methyl-1-oxopentan-2-yl)carbamate], the Ki is 0.73 nM at Cathepsin L and 2.03 nM at Calpain.

As to `CCC(C)C(NC(=O)C(CC(C)C)NC(=O)C(Cc1ccccc1)NC(=O)OCc1ccccc1)C(=O)C(=O)NC(CCCNC(=N)N)C(N)=O` (centres unmarked) [PHELIX294, benzyl (1-amino-10-(sec-butyl)-6-carbamoyl-1-imino-13-isobutyl-8,9,12,15-tetraoxo-17-phenyl-2,7,11,14-tetraazaheptadecan-16-yl)carbamate], the Ki on Cathepsin L came out at 2.53 nM; at Calpain, 0.49 nM.

Turning to `CCC(C)C(NC(=O)C(CC(C)C)NC(=O)OCc1ccccc1)C(=O)C(=O)NC(Cc1cc2ccccc2[nH]1)C(N)=O` (centres unmarked) [PHELIX343, benzyl (1-((1-((1-amino-3-(1H-indol-2-yl)-1-oxopropan-2-yl)amino)-4-methyl-1,2-dioxohexan-3-yl)amino)-4-methyl-1-oxopentan-2-yl)carbamate], the results for the Ki at Cathepsin L and on Calpain were 3.53 nM and 34.1 nM, respectively.

With `CCC(C)C(NC(=O)C(CC(C)C)NC(=O)OCc1ccccc1)C(=O)C(=O)NCC(=O)NC(Cc1ccc(OC)cc1)C(N)=O` (centres unmarked) [PHELIX355, benzyl (1-((1-((2-((1-amino-3-(4-methoxyphenyl)-1-oxopropan-2-yl)amino)-2-oxoethyl)amino)-4-methyl-1,2-dioxohexan-3-yl)amino)-4-methyl-1-oxopentan-2-yl)carbamate], the Ki worked out at 1.57 nM at Cathepsin L and 1.71 nM at Calpain.

As for `CCC(C)C(NC(=O)C(CC(C)C)NC(=O)OCc1ccccc1)C(=O)C(=O)NC(CCCNC(=N)N)C(=O)NC(Cc1ccc2ccccc2c1)C(N)=O` (centres unmarked) [PHELIX329, benzyl (1-((1-((1-((1-amino-3-(naphthalen-2-yl)-1-oxopropan-2-yl)amino)-5-guanidino-1-oxopentan-2-yl)amino)-4-methyl-1,2-dioxohexan-3-yl)amino)-4-methyl-1-oxopentan-2-yl)carbamate], the Ki was determined as 2.67 nM on Cathepsin L and 110 nM on Calpain.

As for `CCC(C)C(NC(=O)C(CC(C)C)NC(=O)OCc1ccccc1)C(=O)C(=O)N1CC(C(=O)NCc2ccc(C(=N)N)cc2)C1` (centres unmarked) [PHELIX366, benzyl (1-((1-(3-((4-carbamimidoylbenzyl)carbamoyl)azetidin-1-yl)-4-methyl-1,2-dioxohexan-3-yl)amino)-4-methyl-1-oxopentan-2-yl)carbamate], the Ki at Cathepsin L came out at 137 nM; on Calpain, 442 nM.

On to `CC[C@H](C)C(NC(=O)[C@H](CC(C)C)NC(=O)OCc1ccccc1)C(=O)C(=O)N1CC(C(=O)O)C1` (some centres unmarked) [PHELIX367, 1-(3-(2-(((benzyloxy)carbonyl)amino)-4-methylpentanamido)-4-methyl-2-oxohexanoyl)azetidine-3-carboxylic acid], for which the Ki on Cathepsin L is 906 nM; on Calpain, over 1000 nM.

For `CCC(C)C(NC(=O)C(CC(C)C)NC(=O)Cc1ccncc1)C(=O)C(=O)NCC(=O)NC(Cc1ccc2ccccc2c1)C(N)=O` (centres unmarked) [PHELIX333, N-(2-((1-amino-3-(naphthalen-2-yl)-1-oxopropan-2-yl)amino)-2-oxoethyl)-4-methyl-3-(4-methyl-2-(2-(pyridin-4-yl)acetamido)pentanamido)-2-oxohexanamide], the figures for the Ki on Cathepsin L and on Calpain were 0.59 nM and 0.98 nM, respectively.

As for `CCC(C)C(NC(=O)C(CC(C)C)NC(=O)OCc1ccccc1)C(=O)C(=O)NC(CCCNC(=N)N)C(=O)NC(Cc1ccc2ccccc2c1)C(N)=O` (centres unmarked) [PHELIX289, benzyl (1-((1-((1-((1-amino-3-(naphthalen-2-yl)-1-oxopropan-2-yl)amino)-5-guanidino-1-oxopentan-2-yl)amino)-4-methyl-1,2-dioxohexan-3-yl)amino)-4-methyl-1-oxopentan-2-yl)carbamate], the Ki was under 0.2 nM at Cathepsin L and 20.5 nM on Calpain.

With `CCC(C)C(NC(=O)C(CC(C)C)NC(=O)Nc1ccccc1)C(=O)C(=O)NCC(=O)NC(Cc1ccc2ccccc2c1)C(N)=O` (centres unmarked) [PHELIX335, N-(2-((1-amino-3-(naphthalen-2-yl)-1-oxopropan-2-yl)amino)-2-oxoethyl)-4-methyl-3-(4-methyl-2-(3-phenylureido)pentanamido)-2-oxohexanamide], the figures for the Ki at Cathepsin L and on Calpain were under 0.15 nM and 1.45 nM, respectively.

As to `CC[C@H](C)C(NC(=O)[C@H](CC(C)C)NC(=O)OCc1ccccc1)C(=O)C(=O)N[C@@H](Cc1cccnc1)C(N)=O` (some centres unmarked) [PHELIX344], the figures for the Ki on Cathepsin L and at Calpain were 20.6 nM and 26.7 nM, respectively.

As to `CCC(C)C(NC(=O)OCc1ccccc1)C(=O)C(=O)NCC(=O)NC(Cc1ccc2ccccc2c1)C(N)=O` (centres unmarked) [PHELIX325, benzyl (1-((2-((1-amino-3-(naphthalen-2-yl)-1-oxopropan-2-yl)amino)-2-oxoethyl)amino)-4-methyl-1,2-dioxohexan-3-yl)carbamate], the Ki at Cathepsin L amounted to 239 nM; on Calpain, 1210 nM.

On to `CCC(C)C(NC(=O)C(Cc1ccccc1)NC(=O)Cc1ccccc1)C(=O)C(=O)NCC(=O)NC(Cc1ccc2ccccc2c1)C(N)=O` (centres unmarked) [PHELIX321, N-(2-((1-amino-3-(naphthalen-2-yl)-1-oxopropan-2-yl)amino)-2-oxoethyl)-4-methyl-2-oxo-3-(3-phenyl-2-(2-phenylacetamido)propanamido)hexanamide], for which the results for the Ki on Cathepsin L and on Calpain were under 0.1 nM and 83.9 nM, respectively.

With `CCC(C)C(NC(=O)C(CC(C)C)NC(=O)OCc1ccccc1)C(=O)C(=O)NCC(=O)NC(Cc1cccc(F)c1)C(N)=O` (centres unmarked) [PHELIX348, benzyl (1-((1-((2-((1-amino-3-(3-fluorophenyl)-1-oxopropan-2-yl)amino)-2-oxoethyl)amino)-4-methyl-1,2-dioxohexan-3-yl)amino)-4-methyl-1-oxopentan-2-yl)carbamate], the Ki at Cathepsin L came out at 2.76 nM; on Calpain, 1.68 nM.

`CCC(C)C(C(=O)C(=O)NCC(=O)NC(Cc1ccc2ccccc2c1)C(N)=O)N(C)C(=O)C(CC(C)C)NC(=O)OCc1ccccc1` (centres unmarked) [PHELIX292, benzyl (1-((1-((2-((1-amino-3-(naphthalen-2-yl)-1-oxopropan-2-yl)amino)-2-oxoethyl)amino)-4-methyl-1,2-dioxohexan-3-yl)(methyl)amino)-4-methyl-1-oxopentan-2-yl)carbamate]: the figures for the Ki on Cathepsin L and on Calpain were 37.1 nM and 4300 nM, respectively.

For `CCC(C)C(NC(=O)C(CC(C)C)NC(=O)OCc1ccccc1)C(=O)C(=O)NC(CCC(N)=O)C(=O)NC(Cc1ccc2ccccc2c1)C(N)=O` (centres unmarked) [PHELIX317, benzyl (1-((1-((5-amino-1-((1-amino-3-(naphthalen-2-yl)-1-oxopropan-2-yl)amino)-1,5-dioxopentan-2-yl)amino)-4-methyl-1,2-dioxohexan-3-yl)amino)-4-methyl-1-oxopentan-2-yl)carbamate], the Ki came to 1.37 nM at Cathepsin L and 19.8 nM at Calpain.

Take `CCC(C)C(NC(=O)C(CC(C)C)NC(=O)OCc1ccccc1)C(=O)C(=O)NC(Cc1ccc2ccccc2c1)C(=O)N(C)C` (centres unmarked) [PHELIX360, benzyl (1-((1-((1-(dimethylamino)-3-(naphthalen-2-yl)-1-oxopropan-2-yl)amino)-4-methyl-1,2-dioxohexan-3-yl)amino)-4-methyl-1-oxopentan-2-yl)carbamate]: the Ki at Cathepsin L was determined as 29.1 nM; on Calpain, 44.1 nM.

With `CCC(C)C(NC(=O)C(CC(C)C)NC(=O)CN1CCN(C)CC1)C(=O)C(=O)NCC(=O)NC(Cc1ccc2ccccc2c1)C(N)=O` (centres unmarked) [PHELIX313, N-(2-((1-amino-3-(naphthalen-2-yl)-1-oxopropan-2-yl)amino)-2-oxoethyl)-4-methyl-3-(4-methyl-2-(2-(4-methylpiperazin-1-yl)acetamido)pentanamido)-2-oxohexanamide], the Ki at Cathepsin L is under 0.1 nM; on Calpain, 9.91 nM.

In the case of `CCC(C)C(NC(=O)C(CC(C)C)NC(=O)OCc1ccccc1)C(=O)C(=O)NC1(C(=O)NC(Cc2ccc3ccccc3c2)C(N)=O)CC1` (centres unmarked) [PHELIX298, benzyl (1-((1-((1-((1-amino-3-(naphthalen-2-yl)-1-oxopropan-2-yl)carbamoyl)cyclopropyl)amino)-4-methyl-1,2-dioxohexan-3-yl)amino)-4-methyl-1-oxopentan-2-yl)carbamate], the Ki at Cathepsin L was determined as 315 nM; on Calpain, 2570 nM.

The record behind these values is US20190085024A1, “Alpha-Ketoamide Inhibitors Of Cysteine Proteases” (Phelix Therapeutics, priority 2017, published 2019).
